Measurements published in patent US20230114728A1 (Venatorx Pharmaceuticals, Inc., priority 2019, published 2023).
Values after ≈ are worked out from the molar mass of the structure shown.

Key:
Format in all cases: cell-based
N. gonorrhoeae WHO Z = experiment: Liquid broth MIC in Fastidious broth; settings: Neisseria gonorrhoeae, read-out: Minimum Inhibitory Concentration, N. gonorrhoeae WHO Z
In short: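 MIC = lowest concentration giving <10% growth relative to untreated wells, scored by eye after ~24 h at 36 °C, 5% CO2. Strains carry mosaic PBP2; inoculum 5×10^5 CFU/mL in Fastidious broth with 2-fold serial compound dilutions.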

E. coli AG100 = experiment: Broth microdilution MIC in CAMHB; settings: Escherichia coli; E. coli AG100 (wild-type parent); MHB; read-out: Minimum Inhibitory Concentration, E. coli AG100
In short: (§1)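 Standard CLSI-style microdilution in cation-adjusted Mueller Hinton broth, 2-fold dilution series, incubated 16-20 h at 37° C; endpoint was visual absence of growth.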

[1] = test system: K. pneumoniae UMM producing SHV-5 and KPC-2; experiment: Broth microdilution MIC in CAMHB; settings: Klebsiella pneumoniae, read-out: Minimum Inhibitory Concentration, K. pneumoniae UMM
In short: as §1

E. coli 901C = experiment: Broth microdilution MIC in CAMHB; settings: Escherichia coli; E. coli 901C (hyper-permeable); MHB; read-out: Minimum Inhibitory Concentration, E. coli 901C
In short: as §1

P. aeruginosa ATCC 27853 = experiment: Broth microdilution MIC in CAMHB; settings: Pseudomonas aeruginosa, ATCC27853; MHB; read-out: Minimum Inhibitory Concentration, P. aeruginosa ATCC 27853
In short: as §1

A. baumannii ATCC 19606 = experiment: Broth microdilution MIC in CAMHB; settings: Acinetobacter baumannii, ATCC19606; MHB; read-out: Minimum Inhibitory Concentration, A. baumannii ATCC 19606
In short: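 CLSI microdilution; CAMHB; inoculum 2-8×10^5 CFU/mL from 3-5 h 37° C culture; 2-fold compound series; 16-20 h, 37° C; MIC = lowest well without visible growth.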

E. coli ATCC 25922 = experiment: Broth microdilution MIC in CAMHB; settings: Escherichia coli, ATCC25922; E. coli ATCC 25922; MHB; read-out: Minimum Inhibitory Concentration, E. coli 25922
In short: as §1

E. coli D22 = experiment: Broth microdilution MIC in CAMHB; settings: Escherichia coli; E. coli D22 (hyper-permeable); MHB; read-out: Minimum Inhibitory Concentration, E. coli D22
In short: as §1

[2] = test system: K. pneumoniae 848844 producing SHV-11 and KPC-2; experiment: Broth microdilution MIC in CAMHB; settings: Klebsiella pneumoniae, read-out: Minimum Inhibitory Concentration, K. pneumoniae 848844
In short: as §1

[3] = test system: P. aeruginosa (ΔmexAB-oprM); experiment: Broth microdilution MIC in CAMHB; settings: Pseudomonas aeruginosa, read-out: Minimum Inhibitory Concentration, P. aeruginosa ΔmexAB-OprM
In short: as §1

[4] = test system: K. pneumoniae SI-117 producing VIM-1; experiment: Broth microdilution MIC in CAMHB; settings: Klebsiella pneumoniae, read-out: Minimum Inhibitory Concentration, K. pneumoniae SI-117
In short: as §1

P. aeruginosa ATCC 35151 = experiment: Broth microdilution MIC in CAMHB; settings: Pseudomonas aeruginosa, ATCC35151; MHB; hyper-permeable strain; read-out: Minimum Inhibitory Concentration, P. aeruginosa ATCC 35151
In short: as §1

E. coli AG100A = experiment: Broth microdilution MIC in CAMHB; settings: Escherichia coli, read-out: Minimum Inhibitory Concentration, E. coli AG100A
In short: as §1

| Compound | MIC (N. gonorrhoeae WHO Z) [µg/mL] | MIC (E. coli AG100) [µg/mL] | MIC [1] [µg/mL] | MIC (E. coli 901C) [µg/mL] | MIC (P. aeruginosa ATCC 27853) [µg/mL] | MIC (A. baumannii ATCC 19606) [µg/mL] | MIC (E. coli ATCC 25922) [µg/mL] | MIC (E. coli D22) [µg/mL] | MIC [2] [µg/mL] | MIC [3] [µg/mL] | MIC [4] [µg/mL] | MIC (P. aeruginosa ATCC 35151) [µg/mL] | MIC (E. coli AG100A) [µg/mL] |
| --- | --- | --- | --- | --- | --- | --- | --- | --- | --- | --- | --- | --- | --- |
| CCN1CCN(C(=O)NC(C(=O)N[C@H]2Cc3cccc(C(=O)O)c3OB2O)c2ccc(O)c(NC(=O)c3ccc(O)c(O)c3Cl)c2)C(=O)C1=O (stereo partly drawn) [Example 74, (3R)-3-(2-(3-(2-chloro-3,4-dihydroxybenzamido)-4-hydroxyphenyl)-2-(4-ethyl-2,3-dioxopiperazine-1-carboxamido)acetamido)-2-hydroxy-3,4-dihydro-2H-benzo[e][1,2]oxaborinine-8-carboxylic acid] | > 64 | 8 to 16 (≈ 11.3 to 22.5 µM) | > 128 | < 0.25 | 8 to 16 (≈ 11.3 to 22.5 µM) | > 128 | > 128 | 2 to 4 (≈ 2.82 to 5.63 µM) | > 128 | 0.5 to 1 (≈ 0.704 to 1.41 µM) | > 128 | 0.5 to 1 (≈ 0.704 to 1.41 µM) | 8 to 16 (≈ 11.3 to 22.5 µM) |
| O=C(O)c1ccc(C(NC(=O)c2c(F)cc(O)c(O)c2Cl)C(=O)N[C@H]2Cc3ccc(F)c(C(=O)O)c3OB2O)cc1F (stereo partly drawn) [Example 71, (3R)-3-(2-(4-carboxy-3-fluorophenyl)-2-(2-chloro-6-fluoro-3,4-dihydroxybenzamido)acetamido)-7-fluoro-2-hydroxy-3,4-dihydro-2H-benzo[e][1,2]oxaborinine-8-carboxylic acid] | > 64 |  |  |  |  |  |  |  |  |  |  |  |  |
| NCCN1CCN(C(=O)NC(C(=O)N[C@H]2Cc3cccc(C(=O)O)c3OB2O)c2c(F)cc(O)cc2Cl)C(=O)C1=O (stereo partly drawn) [Example 94, (3R)-3-(2-(4-(2-aminoethyl)-2,3-dioxopiperazine-1-carboxamido)-2-(2-chloro-6-fluoro-4-hydroxyphenyl)acetamido)-2-hydroxy-3,4-dihydro-2H-benzo[e][1,2]oxaborinine-8-carboxylic acid] | > 64 | 32 to 64 (≈ 54.1 to 108 µM) | 32 to 64 (≈ 54.1 to 108 µM) | 0.5 to 1 (≈ 0.845 to 1.69 µM) | > 128 | > 128 | 32 to 64 (≈ 54.1 to 108 µM) | 8 to 16 (≈ 13.5 to 27 µM) | 32 to 64 (≈ 54.1 to 108 µM) | 32 to 64 (≈ 54.1 to 108 µM) | 32 to 64 (≈ 54.1 to 108 µM) | 2 to 4 (≈ 3.38 to 6.76 µM) | 2 to 4 (≈ 3.38 to 6.76 µM) |
| CC(C)(C)[C@@H](NC(=O)N1CCN(CCNC(=O)c2c(F)cc(O)c(O)c2Cl)C(=O)C1=O)C(=O)N[C@H]1Cc2ccc(F)c(C(=O)O)c2OB1O [Example 80, (R)-3-((R)-2-(4-(2-(2-chloro-6-fluoro-3,4-dihydroxybenzamido)ethyl)-2,3-dioxopiperazine-1-carboxamido)-3,3-dimethylbutanamido)-7-fluoro-2-hydroxy-3,4-dihydro-2H-benzo[e][1,2]oxaborinine-8-carboxylic acid] | > 64 |  |  |  |  |  |  |  |  |  |  |  |  |
| CCN1CCN(C(=O)NC(C(=O)N[C@H]2Cc3ccc(OCCN)c(C(=O)O)c3OB2O)c2ccccc2)C(=O)C1=O (stereo partly drawn) [Example 60, (3R)-7-(2-aminoethoxy)-3-(2-(4-ethyl-2,3-dioxopiperazine-1-carboxamido)-2-phenylacetamido)-2-hydroxy-3,4-dihydro-2H-benzo[e][1,2]oxaborinine-8-carboxylic acid] | > 64 | > 128 | > 128 | 8 to 16 (≈ 14.1 to 28.2 µM) |  | > 128 | > 128 | 32 to 64 (≈ 56.4 to 113 µM) | > 128 | 32 to 64 (≈ 56.4 to 113 µM) | > 128 | 2 to 4 (≈ 3.53 to 7.05 µM) | 32 to 64 (≈ 56.4 to 113 µM) |
| O=C(NC(C(=O)N[C@H]1Cc2ccc(F)c(C(=O)O)c2OB1O)c1ncc(O)cc1F)c1ccnc(F)c1 (stereo partly drawn) [Example 53, (3R)-7-fluoro-3-(2-(3-fluoro-5-hydroxypyridin-2-yl)-2-(2-fluoroisonicotinamido)acetamido)-2-hydroxy-3,4-dihydro-2H-benzo[e][1,2]oxaborinine-8-carboxylic acid] | > 64 | > 128 | > 128 | 8 to 16 (≈ 15.5 to 31 µM) |  |  | > 128 | > 128 | > 128 |  | > 128 |  | > 128 |
| CCN1CCN(C(=O)NC(C(=O)N[C@H]2Cc3ccc(C=O)c(C(=O)O)c3OB2O)c2csc(N)n2)C(=O)C1=O (stereo partly drawn) [Example 57, (3R)-3-(2-(2-aminothiazol-4-yl)-2-(4-ethyl-2,3-dioxopiperazine-1-carboxamido)acetamido)-7-formyl-2-hydroxy-3,4-dihydro-2H-benzo[e][1,2]oxaborinine-8-carboxylic acid] | > 64 | > 128 | 32 to 64 (≈ 57.3 to 115 µM) | 2 to 4 (≈ 3.58 to 7.16 µM) |  | > 128 | 32 to 64 (≈ 57.3 to 115 µM) | 8 to 16 (≈ 14.3 to 28.7 µM) | 32 to 64 (≈ 57.3 to 115 µM) | 32 to 64 (≈ 57.3 to 115 µM) | > 128 | 2 to 4 (≈ 3.58 to 7.16 µM) | 32 to 64 (≈ 57.3 to 115 µM) |
| CCN1CCN(C(=O)NC(C(=O)N[C@H]2Cc3ccc(CO)c(C(=O)O)c3OB2O)c2csc(N)n2)C(O)C1=O (stereo partly drawn) [Example 58, (3R)-3-(2-(2-aminothiazol-4-yl)-2-(4-ethyl-2-hydroxy-3-oxopiperazine-1-carboxamido)acetamido)-2-hydroxy-7-(hydroxymethyl)-3,4-dihydro-2H-benzo[el][1,2]oxaborinine-8-carboxylic acid] | > 64 | > 128 | > 128 | 32 to 64 (≈ 56.9 to 114 µM) |  | > 128 | > 128 | > 128 | > 128 | > 128 | > 128 | 8 to 16 (≈ 14.2 to 28.5 µM) | > 128 |
| O=C(O)c1ccc(C(NC(=O)N2CCN(CCNC(=O)c3ccc(O)c(O)c3Cl)C(=O)C2=O)C(=O)N[C@H]2Cc3ccc(F)c(C(=O)O)c3OB2O)cc1F (stereo partly drawn) [Example 11, (3R)-3-(2-(4-carboxy-3-fluorophenyl)-2-(4-(2-(2-chloro-3,4-dihydroxybenzamido)ethyl)-2,3-dioxopiperazine-1-carboxamido)acetamido)-7-fluoro-2-hydroxy-3,4-dihydro-2H-benzo[e][1,2]oxaborinine-8-carboxylic acid] | 16 to 32 (≈ 20.7 to 41.4 µM) | 32 to 64 (≈ 41.4 to 82.7 µM) | 2 to 4 (≈ 2.58 to 5.17 µM) | 0.5 to 1 (≈ 0.646 to 1.29 µM) |  |  | 32 to 64 (≈ 41.4 to 82.7 µM) | 8 to 16 (≈ 10.3 to 20.7 µM) | > 128 |  | 32 to 64 (≈ 41.4 to 82.7 µM) |  | 2 to 4 (≈ 2.58 to 5.17 µM) |
| CCN1CCN(C(=O)NC(C(=O)N[C@H]2Cc3ccc(O[C@@H]4CN[C@H](C(=O)N(C)C)C4)c(C(=O)O)c3OB2O)c2ccccc2)C(=O)C1=O (stereo partly drawn) [Example 59, (3R)-7-(((3S,5S)-5-(dimethylcarbamoyl)pyrrolidin-3-yl)oxy)-3-(2-(4-ethyl-2,3-dioxopiperazine-1-carboxamido)-2-phenylacetamido)-2-hydroxy-3,4-dihydro-2H-benzo[e][1,2]oxaborinine-8-carboxylic acid] | > 64 | > 128 | > 128 | 2 to 4 (≈ 3.01 to 6.02 µM) |  | > 128 | > 128 | 32 to 64 (≈ 48.2 to 96.3 µM) | > 128 | 8 to 16 (≈ 12 to 24.1 µM) | > 128 | 0.5 to 1 (≈ 0.752 to 1.5 µM) | 32 to 64 (≈ 48.2 to 96.3 µM) |
| NCCN1CCN(C(=O)NC(C(=O)N[C@H]2Cc3ccc(F)c(C(=O)O)c3OB2O)c2nc(N)sc2F)C(=O)C1=O (stereo partly drawn) [Example 24, (3R)-3-(2-(2-amino-5-fluorothiazol-4-yl)-2-(4-(2-aminoethyl)-2,3-dioxopiperazine-1-carboxamido)acetamido)-7-fluoro-2-hydroxy-3,4-dihydro-2H-benzo[e][1,2]oxaborinine-8-carboxylic acid] |  | 32 to 64 (≈ 55 to 110 µM) | 32 to 64 (≈ 55 to 110 µM) | 2 to 4 (≈ 3.44 to 6.88 µM) | > 128 | > 128 | 32 to 64 (≈ 55 to 110 µM) | 8 to 16 (≈ 13.8 to 27.5 µM) | > 128 | 32 to 64 (≈ 55 to 110 µM) | 32 to 64 (≈ 55 to 110 µM) | 2 to 4 (≈ 3.44 to 6.88 µM) | 8 to 16 (≈ 13.8 to 27.5 µM) |
